Reference: patent publication US20070225356A1, “Preventive and/or Therapeutic Agent for Chronic Sinusitis” (Kyowa Hakko Kogo Co., Ltd, priority 2004, published 2007)
Where a name gives a salt, the structure may show the parent alone.

Columns and labels:
[1] = system: patient diagnosed as chronic sinusitis; experiment: Test Example 1: effect of olopatadine hydrochloride on chronic sinusitis, one patient, CT and subjective symptoms; assay type: in vivo, human; conditions: for improvement of symptoms (polyp, headache, right nasal obstruction, purulent nasal discharge, closure of right olfactory cleft): administration of Klaricid and Neuzym for 2 months or more, same patient, before olopatadine hydrochloride
Procedure: A patient diagnosed as chronic sinusitis was orally daily administered with olopatadine hydrochloride (Allelock™ 5 mg tablet; Kyowa Hakko Kogyo Co., Ltd.) alone in a dose of one tablet two times (after breakfast and before bedtime) a day (10 mg/day) everyday. Before the administration of olopatadine hydrochloride and 2 months after the administration, computed tomography (CT) was performed to observe changes in symptoms. […] In administration of Klaricid™ (general name: clarithromycin) and Neuzym™ (general name: lysozyme chloride) for 2 months or more, improvement of these symptoms were not observed.

[2] = system: allergic rhinitis; conditions: Phase III test; cited from earlier work
[3] = system: experimental allergic rhinitis model; conditions: guinea pigs; cited from earlier work
[4] = system: patients with chronic sinusitis complicated with perennial allergic rhinitis; experiment: Test Example 2: degree of improvement in symptoms, 24 patients, eighth week; assay type: in vivo, human; conditions: oral 10 mg/day, other medicines may be combined
Procedure: Patients (24 patients, average age 33.8 years old, duration 61.5±59.7 days) with chronic sinusitis complicated with perennial allergic rhinitis were orally administered with olopatadine hydrochloride (Allelock™ 5 mg tablet; Kyowa Hakko Kogyo Co., Ltd.) in a dose of one tablet two times-(after breakfast and before bedtime) a day (10 mg/day) everyday. In this case, Mucodyne™ (general name: carbocysteine), Dasen™ (general name: serrapeptase), Polaramine™ (general name: d-chlorpheniramine maleate), Klaricid™ (general name: clarithromycin) or the like may be combined. The combined use with such a medicine was filled in a survey sheet. Such a medicine had been given for treatment before this test. At the eighth week of the administration, degrees of improvement in 1) sneezing, 2) nasal drip, 3) nasal obstruction, 4) interference with daily life, 5) mucosal swelling, 6) headache and head heaviness, and 7) postnasal drip were examined for each patient. The degree of each symptom determined with reference according to “Nasal Allergy Diagnosis Guideline for 2002 (Revised Fourth Edition)”, and the degree of improvement in each symptom was evaluated for each patient having a corresponding symptom before the administration on the basis of the four stages, i.e., disappearance, significant improvement, improvement, and no change. In the case of more than improvement (disappearance, significant improvement, or improvement), the rate of improvement was evaluated as “effective” and calculated as a rate (%) of an effective number of patients relative to the number of patients (number of cases) having a corresponding symptom before administration.

[5] = system: patient diagnosed as chronic sinusitis; experiment: Test Example 3: effect 2 on chronic sinusitis, one patient, 21-day schedule, plain radiography; assay type: in vivo, human
Procedure: A patient diagnosed as chronic sinusitis was administered with olopatadine hydrochloride (Allelock™ 5 mg tablet; Kyowa Hakko Kogyo Co., Ltd.) according to the prescription schedule below (21 days in total). 1. First 7 Days (Co-Administration) Three medicines were dosed together according to the following prescription. Also, frequently used SG granules were also prescribed. Olopatadine hydrochloride 5 mg tablet: oral dose of one tablet two times a day for 7 days (10 mg/day) Gatiflo™ (general name: gatifloxacin) 200 mg tablet: oral dose of one tablet two times a day for 4 days (400 mg/day) Mucodyne™ (general name: carbocysteine) 500 mg tablet: oral dose of one tablet three times a day for 7 days (1500 mg/day) 2. Next 14 Days (Single Administration of Olopatadine Hydrochloride) Furthermore, olopatadine hydrochloride was given according to the following prescription: Olopatadine hydrochloride 5 mg tablet: oral dose of one tablet two times a day for 14 days (10 mg/day) Plain radiography was conducted before the administration of the above medicines and 21 days after the administration to observe changes in the symptoms.

[6] = system: patient diagnosed as chronic sinusitis; experiment: Test Example 4: effect 3 on chronic sinusitis, one patient, 35-day schedule, plain radiography; assay type: in vivo, human
Procedure: A patient diagnosed as chronic sinusitis was administered with olopatadine hydrochloride (Allelock™ 5 mg tablet; Kyowa Hakko Kogyo Co., Ltd.) according to the prescription schedule below (35 days in total). 1. First 7 Days (Co-Administration) Three medicines were dosed together according to the following prescription. Olopatadine hydrochloride 5 mg tablet: oral dose of one tablet two times a day for 7 days (10 mg/day) Gatiflo™ (general name: gatifloxacin) 200 mg tablet: oral dose of one tablet two times a day for 4 days (400 mg/day) Mucodyne™ (general name: carbocysteine) 500 mg tablet: oral dose of one tablet three times a day for 7 days (1500 mg/day) 2. Next 14 Days (Co-Administration) Two medicines were further dosed together according to the following prescription. Olopatadine hydrochloride 5 mg tablet: oral dose of one tablet two times a day for 14 days (10 mg/day) Mucodyne™ 500 mg table: oral dose of one tablet three times a day for 14 days (1500 mg/day) 3. Next 14 Days (Single Administration) Furthermore, olopatadine hydrochloride was given according to the following prescription: Olopatadine hydrochloride 5 mg table: oral dose of one tablet two times a day for 14 days (10 mg/day) Plain radiography was conducted before the administration of the above medicines and 35 days after the administration to observe changes in the symptoms.

[7] = system: patient with chronic sinusitis complicated with allergic rhinitis; experiment: Test Example 5: transitions of symptoms, CT and plain radiography, one patient; assay type: in vivo, human; parameters: key to Color of inferior turbinate mucosa (objective symptom grade): +++: (Pale); ++: (Red); +: (Light red); −: (Normal); key to Postnasal drip (subjective symptom grade): +++: Always; ++: Frequently; +: Sometimes; −: No
Procedure: A patient with chronic sinusitis complicated with allergic rhinitis was orally administered with olopatadine hydrochloride (Allelock™ 5 mg tablet; Kyowa Hakko Kogyo Co., Ltd.) alone in a dose of one tablet two times a day for 2 months (10 mg/day). The patient had developed serious sneezing, nasal obstruction, and postnasal drip about 5 and half years ago. The patient discontinued treatment when the subjective symptoms were relieved by intermittent medication. However, improvements in the symptoms were not observed before the start of treatment by administration of the above olopatadine hydrochloride. In addition, in a nasal discharge eosinophil test (an intermediate state between clusters of eosinophils and observable weak dispersion of eosinophils in nasal discharge) and a scratch test (house dust, candida, cedar, and orchard grass), the patient was positive before the start of administration, and the chronic sinusitis of the patient was recognized to be complicated with allergic rhinitis. […] The degree of each symptom was decided on the basis of Tables 3 and 4 in reference to “Nasal Allergy Diagnosis Guideline for 2002 (Revised Fourth Edition)”. In addition, computed tomography (CT) was conducted before the administration of olopatadine hydrochloride and 1 month after and 2 months after the administration, and plain radiography (Waters method) was conducted before the administration of olopatadine hydrochloride and 2 months after the administration to observe changes in the symptoms.

[8] = oral 10 mg/day alone for 2 months, one patient
[9] = first 7 days, co-administration with Gatiflo (gatifloxacin) and Mucodyne (carbocysteine), oral 10 mg/day
[10] = next 14 days, single administration, oral 10 mg/day
[11] = next 14 days, co-administration with Mucodyne (carbocysteine), oral 10 mg/day
[12] = Two weeks after administration, oral 10 mg/day alone, before administration ++
[13] = single administration for 2 months, oral 10 mg/day

CC[C@H]1OC(=O)[C@H](C)[C@@H](O[C@H]2C[C@@](C)(OC)[C@@H](O)[C@H](C)O2)[C@H](C)[C@@H](O[C@@H]2O[C@H](C)C[C@H](N(C)C)[C@H]2O)[C@](C)(OC)C[C@@H](C)C(=O)[C@H](C)[C@@H](O)[C@]1(C)O [Klaricid, clarithromycin]
improvement of symptoms (polyp, headache, right nasal obstruction, purulent nasal discharge, closure of right olfactory cleft) [1]: not observed

CN(C)CC/C=C1/c2ccccc2COc2ccc(CC(=O)O)cc21 [compound 1, (Z)-11-(3-dimethylaminopropylidene)-6,11-dihydrodibenzo[b,e]oxepine-2-acetic acid]
nasal congestion of allergic rhinitis [2]: highly improve
nasal congestion reaction [3]: inhibitory action

CN(C)CC/C=C1/c2ccccc2COc2ccc(CC(=O)O)cc21 [olopatadine hydrochloride]
polyp and soft-tissue density mass which filled the right nasal cavity (CT image) [1, 8]: substantially disappeared
soft-tissue density area which filled the right ethmoidal, right sphenoidal and right frontal sinus (CT image) [1, 8]: substantially disappeared
subjective symptoms such as nasal drip and headache [1, 8]: disappeared
swelling of the inside wall toward the nasal cavity side, closure of the right olfactory cleft due to mucosal thickening (CT image) [1, 8]: relieved
Postnasal drip: Rate of improvement ([4]; 3 cases): 100%
Postnasal drip: patients with Disappearance ([4]; 3 cases): 3
Postnasal drip: patients with Improvement ([4]; 3 cases): 0
Postnasal drip: patients with No change ([4]; 3 cases): 0
Postnasal drip: patients with Significant improvement ([4]; 3 cases): 0
Headache, head heaviness: Rate of improvement ([4]; 5 cases): 100%
Headache, head heaviness: patients with Disappearance ([4]; 5 cases): 5
Headache, head heaviness: patients with Improvement ([4]; 5 cases): 0
Headache, head heaviness: patients with No change ([4]; 5 cases): 0
Headache, head heaviness: patients with Significant improvement ([4]; 5 cases): 0
Sneezing: Rate of improvement ([4]; 12 cases): 91.7%
Sneezing: patients with Disappearance ([4]; 12 cases): 8
Sneezing: patients with Improvement ([4]; 12 cases): 3
Sneezing: patients with No change ([4]; 12 cases): 1
Sneezing: patients with Significant improvement ([4]; 12 cases): 0
Nasal drip: Rate of improvement ([4]; 15 cases): 73.3%
Nasal drip: patients with Disappearance ([4]; 15 cases): 4
Nasal drip: patients with Improvement ([4]; 15 cases): 5
Nasal drip: patients with No change ([4]; 15 cases): 4
Nasal drip: patients with Significant improvement ([4]; 15 cases): 2
Interference with daily life: Rate of improvement ([4]; 16 cases): 87.5%
Interference with daily life: patients with Disappearance ([4]; 16 cases): 3
Interference with daily life: patients with Improvement ([4]; 16 cases): 8
Interference with daily life: patients with No change ([4]; 16 cases): 2
Interference with daily life: patients with Significant improvement ([4]; 16 cases): 3
Mucosal Swelling: Rate of improvement ([4]; 16 cases): 87.5%
Mucosal Swelling: patients with Disappearance ([4]; 16 cases): 0
Mucosal Swelling: patients with Improvement ([4]; 16 cases): 13
Mucosal Swelling: patients with No change ([4]; 16 cases): 2
Mucosal Swelling: patients with Significant improvement ([4]; 16 cases): 1
Nasal obstruction: Rate of improvement ([4]; 16 cases): 87.5%
Nasal obstruction: patients with Disappearance ([4]; 16 cases): 4
Nasal obstruction: patients with Improvement ([4]; 16 cases): 7
Nasal obstruction: patients with No change ([4]; 16 cases): 2
Nasal obstruction: patients with Significant improvement ([4]; 16 cases): 3
shadows in the plain radiograph indicating sinusitis inflammation in the ethmoidal sinus and right and left maxillary sinuses ([5]; after a total of 21 days (7 days co-administration, 14 days single)): completely disappeared
cheek pains (facial pain) and headache [5, 9]: disappeared
nasal symptoms such as purulent nasal discharge and nasal obstruction [5, 9]: improved
nasal mucosal swelling and the like [5, 10]: unobserved
nasal symptoms such as purulent nasal discharge and nasal obstruction [5, 10]: disappeared
shadows in the plain radiograph indicating sinusitis inflammation in the ethmoidal sinus and right and left maxillary sinuses ([6]; after a total of 35 days): completely disappeared
left cheek pain (facial pain) and malaise [6, 9]: disappeared
postnasal drip [6, 9]: not improved
purulent nasal discharge [6, 9]: decreased and substantially disappeared
all subjective symptoms ([6]; last 14 days, single administration, oral 10 mg/day): disappeared
nasal mucosal swelling and the like [6, 11]: disappeared
nasal symptoms such as purulent nasal discharge and postnasal drip [6, 11]: disappeared
Color of inferior turbinate mucosa (objective symptom grade) ([7]; One month after administration, oral 10 mg/day alone, before administration ++): −
Color of inferior turbinate mucosa (objective symptom grade) [7, 12]: −
Postnasal drip (subjective symptom grade) [7, 12]: +
mucosal swelling in the ethmoidal sinus and the maxillary sinus (CT image) ([7]; single administration for 1 month, oral 10 mg/day): significantly relieved
mucosal swelling in the ethmoidal sinus and the maxillary sinus (CT image) [7, 13]: substantially disappeared
shadows observed in the maxillary sinus indicating inflammation of chronic sinusitis (plain radiograph) [7, 13]: disappeared

lysozyme chloride [Neuzym]
improvement of symptoms (polyp, headache, right nasal obstruction, purulent nasal discharge, closure of right olfactory cleft) [1]: not observed
